Assay results taken from PMC6274259, “New 3-Cyano-2-Substituted Pyridines Induce Apoptosis in MCF 7 Breast Cancer Cells” (Molecules, 2016).

Tests used:
[1] = WST-1 cell viability assay, MCF-12a normal cells; format: cell-based, human; details: human, MCF-12a normal breast epithelial cells, 2 μM, 24 h
From the text: (§1) The synthesized compounds were screened for their cytotoxicity on five cancer cell lines, namely SK-OV-3, MCF-7, MDA-MB-231, HCT-116 and RKO, using a WST colorimetric assay. The assay principle is based upon the reduction of the tetrazolium salt WST-1 to formazan by cellular mitochondrial dehydrogenases present in viable cells. […] Among the latter compounds the benzohydrazide derivative 9a emerged with the lowest IC50 in this study against MCF-7 cells compared to 5-FU. […] Based on the fact that 9a had less cytotoxic effects on normal breast epithelial cells it was subjected to further studies. […]
(§2) Cells were trypsinized and placed in a 15 mL Falcon tube, the cells were centrifuged for 3 min at 1000 rpm. […] Cell count was done next by taking 10 μL of the suspension into the cell counting slide and read under 10× cells/mL. […] After 24 h incubation, WST-1 reagent (Sigma) was added to each well and then the plate was incubated for 1 h before measuring the absorbance using VICTOR™ Multilabel Plate Reader (Perkin Elmer, Beaconsfield, UK). The absorbance of the colored solution can be quantified by measuring at a certain wavelength (usually between 500–600 nm), in this experiment the first reading was conducted at 540 nm and the second reading at 690 nm for the reference wavelength. The percentage of cell viability was determined as the ratio of the absorbance of the sample vs the control. […]

[2] = system: MCF-12a normal breast epithelial cells; test: WST-1 cell viability assay, MCF-12a normal cells; format: cell-based, human; details: Homo sapiens, MCF-12A
From the text: as §1, §2

MCF-7 cells = test: TUNEL assay; format: cell-based, human; details: 2 μM, 24 h, compared to control group
From the text: To ascertain induction of apoptosis of compound 9a on MCF-7 cells, the results were confirmed by immune histochemical analysis using a TUNEL assay. TUNEL assay involves labeling of the 3'-hydroxyl DNA ends generated during DNA fragmentation by means of rTdT and labeled dUTP. The localized fluorescence of apoptotic cells (labeled-dUTP) in a blue background (DAPI) for nuclei staining or green background (FITC) was visualized using fluorescence microscope.
For in situ detection of apoptotic cells, a terminal-deoxynucleotidyl transferase meditated nick end labeling (TUNEL) assay was performed using DeadEndTM fluorimetric tunnel system (Promega, Madison, WI, USA). Cells were cultured on 4-chamber slides (VWR, Radnor, PA, USA) at a density of 2 × 10^4 cells/ chamber. After treatment with compound 9a, cells were washed with phosphate buffer saline (PBS) and fixed by incubation in 4% paraformaldehyde (PFA) for 20 min at 4 °C, then permeabilized with 0.05% Triton X-100 for 5 min at 4 °C. The fixed cells were then incubated with […] dUTP in terminal deoxynucleotide transferase recombinant (rTdT)-catalyzed reaction and nucleotide mixture for 60 min at 37 °C in a humidified atmosphere and then immersed in stop/wash buffer for 15 min at room temperature. Cells were then washed with PBS to remove unincorporated fluorescein-12-dUTP. […]

[3] = system: SK-OV-3 human ovarian carcinoma cell line; test: WST-1 cell viability assay, SK-OV-3; format: cell-based; details: Homo sapiens, SK-OV-3; WST-1, 24 h treatment, mean ± S.D of three independent experiments
From the text: (§3) The synthesized compounds were screened for their cytotoxicity on five cancer cell lines, namely SK-OV-3, MCF-7, MDA-MB-231, HCT-116 and RKO, using a WST colorimetric assay. The assay principle is based upon the reduction of the tetrazolium salt WST-1 to formazan by cellular mitochondrial dehydrogenases present in viable cells. […] Among the latter compounds the benzohydrazide derivative 9a emerged with the lowest IC50 in this study against MCF-7 cells compared to 5-FU. […] Based on the fact that 9a had less cytotoxic effects on normal breast epithelial cells it was subjected to further studies.
(§4) The following cell lines were used for the screening stage, obtained from the American Type Culture Collection (ATCC, Manassas, VA, USA); SK-OV-3 (HTB-77), MCF-12A (ATCC CRL-10782), MDA-MB-231 (ATCC HTB-26), HCT-116 (CCL-247), RKO (CRL-2577) and sub-culturing of the above cell lines was conducted in 75 cm^2 flasks. The old culture media was removed and discarded after assessing the confluency of the cells and the cells were rinsed with 2–3 mL diluted trypsin (1×) (trypsin/EDTA solution consists of 0.025% trypsin and 0.01% EDTA in PBS), for about 5 minutes for complete detachment. The cells were observed under the inverted microscope until the cell layer is completely dispersed. 75 cm^2 flasks were prepared and 16 mL of DMEM media for SK-OV-3, MCF-7, MDA-MB-231, (DMEM 4500 mg glucose) and RPMI media for HCT-116 were added to each flask. The cells were aspirated gently and added to the flasks. DMEM 4500 mg/L high glucose with 10% FBS, 5% streptomycin and penicillin, RPMI 1640 (prepared by adding 5% heat-inactivated FCS and 2 mm glutamine) were used. DMEM was also used for MCF-12A cells with the addition of human epidermal growth factor 20 ng/mL, insulin 0.01 mg/mL and hydrocortisone 500 ng/mL.
(§5) The synthesized compounds were screened for their anti-proliferative activity using 5-FU (F6627-1G, Sigma-Aldrich, St. Louis, MO, USA) as reference compound. A concentration of 0.4% DMSO was used in all experiment after ensuring 100% viability of the cell lines with this concentration. A 25 mM stock concentration of all compounds was prepared for further studies and analysis.
(§6) Cells were trypsinized and placed in a 15 mL Falcon tube, the cells were centrifuged for 3 min at 1000 rpm. Trypsin is decanted using a sterile pipette and then the pellet is loosened by flicking the tube few times then 5–10 mL warm DMEM or RPMI were added to the Falcon tube and the pellet is resuspended. Cell count was done next by taking 10 μL of the suspension into the cell counting slide and read under 10× cells/mL. A cell stock of 50,000 cells/mL was prepared for the 96 wells. Cells (100 μL) were added to each well using a sterile pipette each time to ensure consistency. The experiment was planned ahead of time using excel sheet, 3–6 wells were reserved as blank media while 3–6 wells for vehicle (DMSO). The plate was incubated for 24 h for compound treatment step. DMEM media was used to prepare different dilutions of the compounds. The old DMEM media was removed from the wells using sterile pipette in the hood and the media was replaced with 100 μL media with each compound. The plate was incubated for 24 h. After 24 h incubation, WST-1 reagent (Sigma) was added to each well and then the plate was incubated for 1 h before measuring the absorbance using VICTOR™ Multilabel Plate Reader (Perkin Elmer, Beaconsfield, UK). The absorbance of the colored solution can be quantified by measuring at a certain wavelength (usually between 500–600 nm), in this experiment the first reading was conducted at 540 nm and the second reading at 690 nm for the reference wavelength. The percentage of cell viability was determined as the ratio of the absorbance of the sample vs the control. Three independent experiments were performed. […] 5-Florouracil (Sigma-Aldrich, F6627-1G) was used as reference standard.

[4] = system: HCT-116 human colon carcinoma cell line; test: WST-1 cell viability assay, HCT-116; format: cell-based; details: Homo sapiens, HCT-116; WST-1, 24 h treatment, mean ± S.D of three independent experiments
From the text: as §3, §4, §5, §6

IC50 [3]: 9.06 ± 0.24 µM
IC50 [4]: 7.12 ± 0.37 µM
SMILES: COc1ccc(-c2cc(-c3ccc(OC)c(OC)c3)c(C#N)c(OCC(=O)NNC(=O)c3ccccc3)n2)cc1OC [Compound 9a, N'-[2-(3-cyano-4,6-bis(3,4-dimethoxyphenyl)pyridin-2-yloxy)acetyl]benzohydrazide]
viability at 24 h, 2 µM [1]: ~74%
IC50 [2]: 7.5 ± 0.25 µM
TUNEL staining (MCF-7 cells): presence of nuclear condensation and TUNEL-positive cells
